Assays:
[1] = system: PSA secretion of LNCaP cells; assay: Inhibitory activity on PSA secretion of LNCaP cells; assay type: cell-based; settings: Homo sapiens, 96 h; LNCaP cells, 1 nM testosterone medium, 4 days of incubation, PSA kit OD450; read-out: IC50 (inhibition of PSA secretion of LNCaP cells)
Description: The following in vitro assay was performed to determine the activity of the compounds of the present invention for inhibiting prostate specific antigen (PSA) secretion of LNCaP cells.
(11). Testosterone culture medium: RIPM 1640 culture medium, 10% CS-FBS, 1% Pen Strep, 1 nM testosterone
LNCaP cells were subcultured in cell culture medium, resuspended in active carbon culture medium, and then inoculated into a 96-well plate (100 μl/well) with an inoculation density of 5×10^4 cells/well.
The test compounds were dissolved in DMSO (dimethyl sulfoxide) and prepared as a 10 mM stock solution. When used, the stock solution was diluted with 5×DMSO and then diluted with a threefold gradient to obtain 8 gradient concentrations. Then, the 8 gradient concentrations were each diluted with 20× testosterone culture medium, in order to ensure DMSO concentration in each culture system was 0.5%. Diluted test compounds remained to be tested.
10 μl of diluted test compounds were added to a 96-well plate and mixed gently. 10 μl of 0.5% DMSO diluted with active carbon culture medium was added to the blank group, and 10 μl of 0.5% DMSO diluted with testosterone culture medium was added to the control group. The 96-well plate was cultured in an incubator under the conditions of 37° C. and 5% CO2.
After 4 days of incubation, 60 μl of cell cultural supernatants were collected, and the OD450 value per well was measured on a NOVO Star microplate reader using PSA kit (Abnova, KA0208).
(§1) IC50 values were calculated from the data of the inhibition rates of the test compounds at various concentrations.

LNCaP cells = assay: Proliferation inhibition of LNCaP cells (CCK-8); assay type: cell-based; settings: Homo sapiens, 144 h, cultured 3 + 3 days, CCK-8, OD at 450 nm
Description: The following in vitro assay was performed to determine the activity of the compounds of the present invention for inhibiting the proliferation of LNCaP cells.
(1). Cell counting reagent CCK-8 (DOJINDO, CK04)
See experimental procedure from Test Example 1.
After LNCaP cells were cultured for 3 days, the culture medium, test compounds, blank group, and control group were renewed with half of the liquid volume, and were cultured for another 3 days. Then, all 96-well plates were mixed gently with 10 μl of CCK-8 and cultured in an incubator for 2-3 hours under the conditions of 37° C. and 5% CO2. The OD value per well was measured at 450 nm on a Victor3 microplate reader.
as §1

## CC1(C)C(=O)N(c2ccc(C#N)c(C(F)(F)F)c2)C(=S)N1c1ccc(OCC2(O)CC2)c(F)c1 [Example 5, 4-(3-(3-Fluoro-4-((1-hydroxycyclopropyl)methoxy)phenyl)-4,4-dimethyl-5-oxo-2-thioxoimidazolidin-1-yl)-2-(trifluoromethyl)benzonitrile]
[1]
  IC50: 0.124 µM
LNCaP cells
  IC50: 0.087 µM

## CNC(=O)COc1ccc(N2C(=S)N(c3ccc(C#N)c(C(F)(F)F)c3)C(=O)C2(C)C)cc1F [Example 32, 2-(4-(3-(4-Cyano-3-(trifluoromethyl)phenyl)-5,5-dimethyl-4-oxo-2-thioxoimidazolidin-1-yl)-2-fluorophenoxy)-N-methylacetamide]
[1]
  IC50: 0.11 µM
LNCaP cells
  IC50: 0.134 µM

## CC1(C)C(=O)N(c2ccc(C#N)c(C(F)(F)F)c2)C(=S)N1c1ccc(OC(F)F)c(F)c1 [Example 3, 4-(3-(4-(Difluoromethoxy)-3-fluorophenyl)-4,4-dimethyl-5-oxo-2-thioxoimidazolidin-1-yl)-2-(trifluoromethyl)benzonitrile]
[1]
  IC50: 0.035 µM
LNCaP cells
  IC50: 0.046 µM

## CC1(C)C(=O)N(c2ccc(C#N)c(C(F)(F)F)c2)C(=S)N1c1ccc(OCC(O)CO)cc1 (centres unmarked) [Example 48, 4-(3-(4-(2,3-Dihydroxypropoxy)phenyl)-4,4-dimethyl-5-oxo-2-thioxoimidazolidin-1-yl)-2-(trifluoromethyl)benzonitrile]
[1]
  IC50: 0.037 µM
LNCaP cells
  IC50: 0.281 µM

## CC1(C)C(=O)N(c2ccc(C#N)c(C(F)(F)F)c2)C(=S)N1c1ccc(OC2COC2)c(F)c1 [Example 41, 4-(3-(3-Fluoro-4-((oxetan-3-yl)oxy)phenyl)-4,4-dimethyl-5-oxo-2-thioxoimidazolidin-1-yl)-2-(trifluoromethyl)benzonitrile]
[1]
  IC50: 0.024 µM
LNCaP cells
  IC50: 0.283 µM

## CC1(C)C(=O)N(c2ccc(C#N)c(C(F)(F)F)c2)C(=S)N1c1ccc(O[C@H]2CCOC2)nc1 [Example 24, (S)-4-(4,4-Dimethyl-5-oxo-3-(6-((tetrahydrofuran-3-yl)oxy)pyridin-3-yl)-2-thioxoimidazolidin-1-yl)-2-(trifluoromethyl)benzonitrile]
[1]
  IC50: 0.032 µM
LNCaP cells
  IC50: 0.092 µM

## CN1CCC(Oc2ccc(N3C(=S)N(c4ccc(C#N)c(C(F)(F)F)c4)C(=O)C3(C)C)cc2F)C1 (centres unmarked) [Example 29, 4-(3-(3-Fluoro-4-((1-methylpyrrolidin-3-yl)oxy)phenyl)-4,4-dimethyl-5-oxo-2-thioxoimidazolidin-1-yl)-2-(trifluoromethyl)benzonitrile]
[1]
  IC50: 0.085 µM
LNCaP cells
  IC50: 0.08 µM

## CNC(=O)c1ccccc1Oc1ccc(N2C(=S)N(c3ccc(C#N)c(C(F)(F)F)c3)C(=O)C2(C)C)cc1F [Example 26, 2-(4-(3-(4-Cyano-3-(trifluoromethyl)phenyl)-5,5-dimethyl-4-oxo-2-thioxoimidazolidin-1-yl)-2-fluorophenoxy)-N-methylbenzamide]
[1]
  IC50: 0.044 µM
LNCaP cells
  IC50: 0.201 µM

## CC1(C)C(=O)N(c2ccc(C#N)c(C(F)(F)F)c2)C(=S)N1c1ccc(OCC2(C#N)CC2)c(F)c1 [Example 39, 4-(3-(4-((1-Cyanocyclopropyl)methoxy)-3-fluorophenyl)-4,4-dimethyl-5-oxo-2-thioxoimidazolidin-1-yl)-2-(trifluoromethyl)benzonitrile]
[1]
  IC50: 0.027 µM
LNCaP cells
  IC50: 0.256 µM

## CC1(C)C(=O)N(c2ccc(C#N)c(C(F)(F)F)c2)C(=S)N1c1ccc(OC2CCNCC2)c(F)c1 [Example 19, 4-(3-(3-Fluoro-4-((piperidin-4-yl)oxy)phenyl)-4,4-dimethyl-5-oxo-2-thioxoimidazolidin-1-yl)-2-(trifluoromethyl)benzonitrile]
[1]
  IC50: 0.094 µM
LNCaP cells
  IC50: 0.194 µM

## CN1CCC(Oc2ccc(N3C(=S)N(c4ccc(C#N)c(C(F)(F)F)c4)C(=O)C3(C)C)cc2F)CC1 [Example 20, 4-(3-(3-Fluoro-4-((1-methylpiperidin-4-yl)oxy)phenyl)-4,4-dimethyl-5-oxo-2-thioxoimidazolidin-1-yl)-2-(trifluoromethyl)benzonitrile]
[1]
  IC50: 0.057 µM
LNCaP cells
  IC50: 0.156 µM

## CC(=O)N1CCC(Oc2ccc(N3C(=S)N(c4ccc(C#N)c(C(F)(F)F)c4)C(=O)C3(C)C)cc2F)C1 (centres unmarked) [Example 36, 4-(3-(4-((1-Acetylpyrrolidin-3-yl)oxy)-3-fluorophenyl)-4,4-dimethyl-5-oxo-2-thioxoimidazolidin-1-yl)-2-(trifluoromethyl)benzonitrile]
[1]
  IC50: 0.023 µM
LNCaP cells
  IC50: 0.115 µM

## CC1(C)C(=O)N(c2ccc(C#N)c(C(F)(F)F)c2)C(=S)N1c1ccc(O[C@H]2CCOC2)c(F)c1 [Example 2, (S)-4-(3-(3-Fluoro-4-((tetrahydrofuran-3-yl)oxy)phenyl)-4,4-dimethyl-5-oxo-2-thioxoimidazolidin-1-yl)-2-(trifluoromethyl)benzonitrile]
[1]
  IC50: 0.045 µM
LNCaP cells
  IC50: 0.097 µM

## CC1(C)C(=O)N(c2ccc(C#N)c(C(F)(F)F)c2)C(=S)N1c1ccc(OC2CCS(=O)(=O)CC2)c(F)c1 [Example 23, 4-(3-(4-((1,1-Dioxidotetrahydro-2H-thiopyran-4-yl)oxy)-3-fluorophenyl)-4,4-dimethyl-5-oxo-2-thioxoimidazolidin-1-yl)-2-(trifluoromethyl)benzonitrile]
[1]
  IC50: 0.024 µM
LNCaP cells
  IC50: 0.18 µM

## CC1(C)C(=O)N(c2ccc(C#N)c(C(F)(F)F)c2)C(=S)N1c1ccc(OCC2(N)CC2)cc1 [Example 37, 4-(3-(4-((1-Aminocyclopropyl)methoxy)phenyl)-4,4-dimethyl-5-oxo-2-thioxoimidazolidin-1-yl)-2-(trifluoromethyl)benzonitrile]
[1]
  IC50: 0.023 µM
LNCaP cells
  IC50: 0.063 µM

## CC1(C)C(=O)N(c2ccc(C#N)c(C(F)(F)F)c2)C(=S)N1c1ccc(OC2COC2)cc1 [Example 40, 4-(4,4-Dimethyl-3-(4-((oxetan-3-yl)oxy)phenyl)-5-oxo-2-thioxoimidazolidin-1-yl)-2-(trifluoromethyl)benzonitrile]
[1]
  IC50: 0.029 µM
LNCaP cells
  IC50: 0.196 µM

## CC1(C)C(=O)N(c2ccc(C#N)c(C(F)(F)F)c2)C(=S)N1c1ccc(O[C@@H]2CCOC2)c(F)c1 [Example 1, (R)-4-(3-(3-Fluoro-4-((tetrahydrofuran-3-yl)oxy)phenyl)-4,4-dimethyl-5-oxo-2-thioxoimidazolidin-1-yl)-2-(trifluoromethyl)benzonitrile]
[1]
  IC50: 0.034 µM
LNCaP cells
  IC50: 0.195 µM

## CC1(C)C(=O)N(c2ccc(C#N)c(C(F)(F)F)c2)C(=S)N1c1ccc(OCCCS(C)(=O)=O)c(F)c1 [Example 22, 4-(3-(3-Fluoro-4-(3-(methylsulfonyl)propoxy)phenyl)-4,4-dimethyl-5-oxo-2-thioxoimidazolidin-1-yl)-2-(trifluoromethyl)benzonitrile]
[1]
  IC50: 0.021 µM
LNCaP cells
  IC50: 0.134 µM

## CC1(C)C(=O)N(c2ccc(C#N)c(C(F)(F)F)c2)C(=S)N1c1ccc(OC2CCNC2)c(F)c1 (centres unmarked) [Example 28, 4-(3-(3-Fluoro-4-((pyrrolidin-3-yl)oxy)phenyl)-4,4-dimethyl-5-oxo-2-thioxoimidazolidin-1-yl)-2-(trifluoromethyl)benzonitrile]
[1]
  IC50: 0.082 µM
LNCaP cells
  IC50: 0.079 µM

Source: US9586947B2, “Imidazoline derivatives, preparation methods thereof, and their applications in medicine” (priority 2012, dated 2017)
